{"source": "patent US20170087174A1", "about": "“COMBINATION THERAPY REGIMEN FOR TREATMENT OF HCV” (JANSSEN PHARMACEUTICALS, INC., priority 2015, published 2017)", "key": {"P-gp": {"molecular_target": "P-gp (Homo sapiens, UniProt P08183)", "sequence (P08183 whole entry)": "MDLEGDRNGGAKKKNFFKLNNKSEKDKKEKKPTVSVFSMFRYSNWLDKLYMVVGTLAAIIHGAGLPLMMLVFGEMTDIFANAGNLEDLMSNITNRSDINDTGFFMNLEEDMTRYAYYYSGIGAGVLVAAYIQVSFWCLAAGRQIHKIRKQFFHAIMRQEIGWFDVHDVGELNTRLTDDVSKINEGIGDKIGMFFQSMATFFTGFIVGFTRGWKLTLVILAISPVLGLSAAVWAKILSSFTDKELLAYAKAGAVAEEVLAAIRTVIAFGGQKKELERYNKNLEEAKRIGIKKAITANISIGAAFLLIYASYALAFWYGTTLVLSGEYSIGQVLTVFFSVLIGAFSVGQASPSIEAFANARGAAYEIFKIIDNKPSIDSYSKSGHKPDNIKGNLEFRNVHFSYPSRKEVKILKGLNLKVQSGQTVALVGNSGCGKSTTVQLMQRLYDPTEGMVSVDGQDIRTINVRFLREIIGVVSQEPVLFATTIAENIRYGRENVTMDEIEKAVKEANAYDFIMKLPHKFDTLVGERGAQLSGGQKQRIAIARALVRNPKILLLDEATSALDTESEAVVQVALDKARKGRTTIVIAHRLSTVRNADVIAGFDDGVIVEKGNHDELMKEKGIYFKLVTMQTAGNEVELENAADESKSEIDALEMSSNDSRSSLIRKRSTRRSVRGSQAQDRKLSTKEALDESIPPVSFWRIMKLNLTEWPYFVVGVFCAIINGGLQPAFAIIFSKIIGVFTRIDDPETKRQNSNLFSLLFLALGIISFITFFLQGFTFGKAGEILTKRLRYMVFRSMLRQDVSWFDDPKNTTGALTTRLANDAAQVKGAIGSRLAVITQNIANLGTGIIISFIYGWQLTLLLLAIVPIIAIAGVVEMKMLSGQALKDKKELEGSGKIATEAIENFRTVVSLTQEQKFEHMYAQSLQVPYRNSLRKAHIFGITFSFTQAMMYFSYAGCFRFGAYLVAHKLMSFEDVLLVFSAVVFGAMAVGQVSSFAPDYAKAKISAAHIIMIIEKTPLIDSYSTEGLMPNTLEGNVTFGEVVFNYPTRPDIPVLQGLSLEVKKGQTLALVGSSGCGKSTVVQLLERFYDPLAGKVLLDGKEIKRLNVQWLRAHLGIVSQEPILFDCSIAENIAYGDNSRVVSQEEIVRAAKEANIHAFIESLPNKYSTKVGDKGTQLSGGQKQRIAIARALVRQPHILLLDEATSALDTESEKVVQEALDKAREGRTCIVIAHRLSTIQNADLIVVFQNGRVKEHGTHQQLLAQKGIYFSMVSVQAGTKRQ", "conditions": "in vitro; cited from earlier work"}, "[1]": {"tested_on": "CYP (cytochrome P450 enzymes)", "assay": "CYP inhibition in vitro"}, "OATP1B1": {"molecular_target": "T1, OATP1B1 (Homo sapiens, UniProt Q9Y6L6)", "T1 sequence (Q9Y6L6 1-691)": "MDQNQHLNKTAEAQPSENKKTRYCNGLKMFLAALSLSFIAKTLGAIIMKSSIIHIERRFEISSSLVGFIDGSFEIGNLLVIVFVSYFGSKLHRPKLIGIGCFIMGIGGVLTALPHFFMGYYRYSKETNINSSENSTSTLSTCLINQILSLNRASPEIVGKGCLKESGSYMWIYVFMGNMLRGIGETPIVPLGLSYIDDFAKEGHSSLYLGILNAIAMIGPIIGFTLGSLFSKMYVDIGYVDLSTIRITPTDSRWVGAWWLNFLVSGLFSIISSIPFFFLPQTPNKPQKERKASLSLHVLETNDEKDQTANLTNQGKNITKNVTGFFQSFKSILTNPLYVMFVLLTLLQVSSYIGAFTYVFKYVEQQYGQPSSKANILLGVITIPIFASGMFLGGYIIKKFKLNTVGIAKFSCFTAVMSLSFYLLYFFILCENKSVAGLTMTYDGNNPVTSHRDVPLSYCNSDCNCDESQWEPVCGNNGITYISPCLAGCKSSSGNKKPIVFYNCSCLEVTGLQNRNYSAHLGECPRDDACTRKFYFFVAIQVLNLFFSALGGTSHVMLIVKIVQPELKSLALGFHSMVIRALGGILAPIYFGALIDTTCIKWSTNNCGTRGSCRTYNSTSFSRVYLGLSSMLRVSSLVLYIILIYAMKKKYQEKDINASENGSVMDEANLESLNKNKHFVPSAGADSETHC", "conditions": "in vitro; cited from earlier work"}, "[2]": {"assay": "PK of single agents vs fixed dose combinations (FDC), single oral dose in healthy volunteers", "format": "in vivo, human", "conditions": "for Cmax: read-out: Cmax (mean ± SD); for AUC(0-t): read-out: AUClast (mean ± SD); for AUC(0-inf): read-out: AUC∞ (mean ± SD)", "procedure": "SMV (100 mg), ODV (50 mg), and Compound (III) (800 mg) were administered as three different formulations or together as single doses in vivo to healthy volunteers. The arms of the study included: • Arm 1 (Reference Arm): Single oral doses of single agents, one SMV 100-mg capsule, one ODV 50-mg tablet as granule layered solid dispersion with copovidone and poloxamers, and two Compound (III) 400-mg tablets, administered together. • Arm 2: Single oral dose of fixed dose combination (FDC02): SMV 100 mg+ODV 50 mg as a spray dried solid dispersion with HPMC-AS L in a ratio ODV/HPMC-AS L 1/1 w/w+Compound (III) 800 mg • Arm 3: Single oral dose of fixed dose combination (FDC04): SMV 100 mg+ODV 50 mg as a spray dried solid dispersion with HPMC-AS L in a ratio ODV/HPMC-AS L 1/3 w/w+Compound (III) 800 mg • Arm 4: Single oral dose of fixed dose combination (FDC01): SMV 100 mg+ODV 50 mg as a spray dried solid dispersion with copovidone and poloxamers+Compound (III) 800 mg\nPK parameters, including Cmax, tmax, AUClast, and AUC∞ were measured for Compound (III), ODV, SMV, and metabolites Compound A-I and Compound A-3 for each Arm of the study. Arms that included fixed dose combinations (FDC) (Arm 2, Arm 3, and Arm 4) were then compared to a single oral dose (Arm 1, the reference Arm). Table 9, Table 10, Table 11, Table 12 and Table 13 display relevant PK parameters and FIG. 9, FIG. 10, FIG. 11, FIG. 12, and FIG. 13 depict the plasma concentration over time of SMV, ODV, Compound A-1, and Compound A-3 for each Arm of the study."}, "[3]": {"assay": "Phase-1 drug-drug interaction study in healthy volunteers (Compound (III) 800 mg, SMV 150 mg, Odalasvir 150 mg loading then 50 mg, once daily): plasma PK", "format": "in vivo, human", "conditions": "both sexes, human, in vivo; for AUC0-24: read-out: AUC0-24; for Cmax: read-out: Cmax", "description": "The following daily doses were employed:"}, "[4]": {"conditions": "Arm 2 (FDC02) vs reference (Arm 1)"}, "[5]": {"conditions": "Arm 3 (FDC04) vs reference (Arm 1)"}, "[6]": {"conditions": "Arm 4 (FDC01) vs reference (Arm 1)"}, "[7]": {"conditions": "human, in vivo, Arm 1 (reference): single agents together"}, "[8]": {"conditions": "Group 1, Day 3, Compound (III) alone"}, "[9]": {"conditions": "Group 1, Day 13 (Compound (III) + SMV)"}, "[10]": {"conditions": "Group 1, Day 23 (Compound (III) + SMV + ODV)"}, "[11]": {"conditions": "Group 2, Day 3 (Compound (III) alone)"}, "[12]": {"conditions": "Group 2, Day 13 (Compound (III) + SMV)"}, "[13]": {"conditions": "Group 2, Day 23 (Compound (III) + SMV + ODV)"}}, "note": "Read-outs that look alike come from different tables or passages of the source.", "data": [{"smiles": "CC(C)OC(=O)[C@H](C)N[P@](=O)(OC[C@@]1(F)O[C@@H](n2ccc(=O)[nH]c2=O)[C@](C)(O)[C@@H]1O)Oc1ccccc1", "note": "[Compound (III), isopropyl ((S)-(((2S,3S,4R,5R)-5-(2,4-dioxo-3,4-dihydropyrimidin-1 (2H)-yl)-2-fluoro-3,4-dihydroxy-4-methyltetrahydrofuran-2-yl)methoxy)(phenoxy)phosphoryl)-L-alaninate]", "values": [{"measurement": "P-gp inhibition (in words)", "setting": "P-gp", "result": "no in vitro inhibition"}, {"measurement": "IC50", "setting": "[1]", "result": "> 26", "unit": "µM"}, {"measurement": "CYP inhibition potential (in words)", "setting": "[1]; on any CYP", "result": "limited CYP inhibition potential"}, {"measurement": "OATP1B1 inhibition (in words)", "setting": "OATP1B1", "result": "no in vitro inhibition"}, {"measurement": "t1/2term (mean ± SD)", "setting": "[2]; Arm 1 (reference): single agents together", "result": "36 ± 6", "unit": "min"}, {"measurement": "Least Square Means Ratio, AUClast", "setting": "[2]; [4]", "result": 110.22, "unit": "%"}, {"measurement": "Least Square Means Ratio, AUC∞", "setting": "[2]; [4]", "result": 111.86, "unit": "%"}, {"measurement": "Least Square Means Ratio, Cmax", "setting": "[2]; [4]", "result": 109.68, "unit": "%"}, {"measurement": "t1/2term (mean ± SD)", "setting": "[2]; Arm 2: FDC02", "result": "42 ± 12", "unit": "min"}, {"measurement": "tmax (median [range])", "setting": "[2]; Arm 2: FDC02", "result": "2.00 (0.50-4.00) h"}, {"measurement": "Least Square Means Ratio, AUClast", "setting": "[2]; [5]", "result": 127.06, "unit": "%"}, {"measurement": "Least Square Means Ratio, AUC∞", "setting": "[2]; [5]", "result": 138.97, "unit": "%"}, {"measurement": "Least Square Means Ratio, Cmax", "setting": "[2]; [5]", "result": 122.40, "unit": "%"}, {"measurement": "t1/2term (mean ± SD)", "setting": "[2]; Arm 3: FDC04", "result": "42 ± 6", "unit": "min"}, {"measurement": "tmax (median [range])", "setting": "[2]; Arm 3: FDC04", "result": "2.00 (1.00-4.00) h"}, {"measurement": "Least Square Means Ratio, AUClast", "setting": "[2]; [6]", "result": 151.72, "unit": "%"}, {"measurement": "Least Square Means Ratio, AUC∞", "setting": "[2]; [6]", "result": 144.80, "unit": "%"}, {"measurement": "Least Square Means Ratio, Cmax", "setting": "[2]; [6]", "result": 145.56, "unit": "%"}, {"measurement": "t1/2term (mean ± SD)", "setting": "[2]; Arm 4: FDC01", "result": "36 ± 6", "unit": "min"}, {"measurement": "tmax (median [range])", "setting": "[2]; Arm 4: FDC01", "result": "2.00 (1.00-4.00) h"}, {"measurement": "Cmax", "setting": "[2]; human, in vivo, Arm 1 (reference): single agents together, SMV 100-mg capsule, ODV 50-mg tablet, two Compound (III) 400-mg tablets", "result": "484 ± 177", "unit": "ng/mL"}, {"measurement": "AUC(0-t)", "setting": "[2]; [7]", "result": "1160 ± 497", "unit": "ng·h/mL"}, {"measurement": "AUC(0-inf)", "setting": "[2]; [7]", "result": "1180 ± 524", "unit": "ng·h/mL"}, {"measurement": "Tmax", "setting": "[2]; human, in vivo, Arm 1 (reference): single agents together, read-out: tmax (median [range])", "result": 120, "unit": "min"}, {"measurement": "Cmax", "setting": "[2]; human, in vivo, Arm 2: FDC02, SMV 100 mg + ODV 50 mg (ODV/HPMC-AS L 1/1 w/w) + Compound (III) 800 mg", "result": "544 ± 225", "unit": "ng/mL"}, {"measurement": "AUC(0-t)", "setting": "[2]; human, in vivo, Arm 2: FDC02", "result": "1260 ± 411", "unit": "ng·h/mL"}, {"measurement": "AUC(0-inf)", "setting": "[2]; human, in vivo, Arm 2: FDC02", "result": "1300 ± 420", "unit": "ng·h/mL"}, {"measurement": "Cmax", "setting": "[2]; human, in vivo, Arm 3: FDC04, SMV 100 mg + ODV 50 mg (ODV/HPMC-AS L 1/3 w/w) + Compound (III) 800 mg", "result": "617 ± 295", "unit": "ng/mL"}, {"measurement": "AUC(0-t)", "setting": "[2]; human, in vivo, Arm 3: FDC04", "result": "1440 ± 450", "unit": "ng·h/mL"}, {"measurement": "AUC(0-inf)", "setting": "[2]; human, in vivo, Arm 3: FDC04", "result": "1580 ± 434", "unit": "ng·h/mL"}, {"measurement": "Cmax", "setting": "[2]; human, in vivo, Arm 4: FDC01, SMV 100 mg + ODV 50 mg (copovidone and poloxamers) + Compound (III) 800 mg", "result": "745 ± 381", "unit": "ng/mL"}, {"measurement": "AUC(0-t)", "setting": "[2]; human, in vivo, Arm 4: FDC01", "result": "1830 ± 866", "unit": "ng·h/mL"}, {"measurement": "AUC(0-inf)", "setting": "[2]; human, in vivo, Arm 4: FDC01", "result": "1790 ± 889", "unit": "ng·h/mL"}, {"measurement": "AUC0-24", "setting": "[3]; [8]", "result": 292, "unit": "ng·h/mL"}, {"measurement": "Cmax", "setting": "[3]; [8]", "result": 162, "unit": "ng/mL"}, {"measurement": "AUC0-24", "setting": "[3]; [9]", "result": 1000, "unit": "ng·h/mL"}, {"measurement": "Cmax", "setting": "[3]; [9]", "result": 376, "unit": "ng/mL"}, {"measurement": "AUC0-24", "setting": "[3]; [10]", "result": 2090, "unit": "ng·h/mL"}, {"measurement": "Cmax", "setting": "[3]; [10]", "result": 747, "unit": "ng/mL"}, {"measurement": "AUC0-24", "setting": "[3]; [11]", "result": 325, "unit": "ng·h/mL"}, {"measurement": "Cmax", "setting": "[3]; [11]", "result": 151, "unit": "ng/mL"}, {"measurement": "AUC0-24", "setting": "[3]; [12]", "result": 1300, "unit": "ng·h/mL"}, {"measurement": "Cmax", "setting": "[3]; [12]", "result": 516, "unit": "ng/mL"}, {"measurement": "AUC0-24", "setting": "[3]; [13]", "result": 2910, "unit": "ng·h/mL"}, {"measurement": "Cmax", "setting": "[3]; [13]", "result": 950, "unit": "ng/mL"}]}]}
